SMILES strings stand for the structures.

Holding throughout (format): in vivo
For test [1], the system named is Mäuse. As to the kind of experiment: Hypoxia in barochamber (11000 m), survival. The method, then:
Nach einer der Methoden wurden die Mäuse in der Barokammer untergebracht, die für die Höhe von II000 m über dem Meeresspiegel gehoben wurde. Die Hebung wurde mit einer Geschwindigkeit von 50 m/s verwirklicht. Der atmosphärische Tiefdruck wurde mit Hilfe der elektrischen Vakuumpumpe geschaffen.
Die beanspruchte Verbindung, Natriumoxybutyrat und Pyrazetam wurden 60 min vor dem Versuch enteral eingeführt. Der Schutzeffekt wurde nach der Überlebensdauer eingeschätzt. Die Angaben sind in Tabelle I0 angeführt.

For test [2], the system named is Mäuse. As to the kind of experiment: Hemic hypoxia by intraperitoneal Natriumnitrit, survival. Conditions: Natriumnitrit 200 mg/kg i.p. 15 min after compound. How it is done:
Die gemische Hypoxie wurde durch die intraperitoneale und subkutane Verabreichung von Natriumnitrit in einer Dosis von 200 mg/kg den Gruppen zu I0 […] I5 min nach der Einführung der Prüfverbindungen erzeugt. Die Angaben sind in der Tabelle I2 (bei der intraperitonealen Einführung von Natriumnitrit) und Tabelle I3 (bei der subkutanen Einführung von Natriumnitrit) angeführt.

The subject of test [3] is Mäuse. The test can be described thus: Motor and orientation activity in photoelectric actometer. Conditions: counted 60 min from 10 min after dosing. The text has this:
Zur Bestimmung der sedativen Wirksamkeit wurde die motorische und Orientierungsaktivität und die motorische Fähigkeit in Versuchen an Mäusen und Ratten untersucht.
Den Versuchstieren wurden die beanspruchte Verbindung, γ -Amino- β -phenylbuttersäurehydrochlorid und Pyrazetam eingeführt. Als Kontrolle diente die physiologische Lösung (0,9%ige NaCl-Lösung). Die Untersuchungen wurden an I0 bis I2 erwachsenen Tieren (Mäuse, Ratten) durchgeführt.
Bei der Bestimmung der motorischen und Orientierungsaktivität wurde jede Maus in einer Einzelkamner des photoelektrischen Aktometers untergebracht. Die motorische und Orientierungsaktivität wurde nach der Zahl der Impulse bestimmt, die beim Berühren der Aktometerkontakte durch das Tier entstanden. Das Zählen der Im pulse wurde I0 min nach der intraperitonealen Einführung der genannten Verbindungen begonnen und dauerte innerhalb von 60 min. Die Angaben sind in der Tabelle I angeführt.

The subject of test [4] is Ratten. As to the kind of experiment: Natriumäthaminal intoxication, sleep duration, rats. To be noted: 500 mg/kg single + Natriumäthaminal 100 mg/kg i.p. The method, then:
Ausserdem wurde die Wirkung der beanspruchten Verbindung auf die durch Natriumäthaminal erzeugte Intoxikation untersucht. Die Versuche wurden an männlichen Mäusen und Ratten in Gruppen zu 8 bis I0 Tieren angestellt. Natriumäthaminal wurde intraperitoneal in einner Dosis von I00 mg/kg I5 min nach der enteralen Verabreichung der beanspruchten Verbindung oder der Kontrollarzneimittel eingeführt. Es wurde die einmalige und chronische Einwirkung (während I2 bis I4 Tage einmal täglich) von der neuen Verbindung, γ -Amino- β - -phenylbuttersäurehydrochlorid und Pyrazetam untersucht. Es wurde die Dauer der Seitenlage - des Schlafs der Tiere bestimmt. Die Ergebnisse dieser Untersuchung sind in Tabelle 23 (für Mäuse) und 24 (für Ratten) angeführt.

Test [5] relates to Mäuse. The test can be described thus: Thresholds of emotional reactivity and aggressiveness on electric pain stimulation, mice. The text has this:
Es wurde auch die emotionelle Aktivität und Aggressivität der Tiere auf dem Wege der elektrischen Schmerzreizung untersucht.
In einer Kammer von 20 x 20 x 25 cm Ausmass, deren Boden - ein Metallgitter aus Stangen darstellt, wurde ein Paar Tiere untergebracht (männliche Mäuse) und es wurde der Wechselstrom durchgelassen. Die Spannung wurde dosenartig auf 5 V solange erhöht, bis der Strom das Piepsen (die Schwelle der emotionellen Reaktivität) und die Schlägerei der Tiere (die Schwelle der Aggressivität) auslöste. Jede Spannungsgrösse wurde innerhalb von 5 sec zweimal in einem Zeitabstand von 20 bis 50 Sekunden aufrechterhalten. Die Kontrolle des Benehmens der Tiere begann man I0 Minuten nach der Einführung der oben erwähnten Verbindungen. Die Angaben sind in Tabellen 3, 4 angeführt.

Test [6] concerns Ratten. The test can be described thus: Thresholds of emotional reactivity and aggressiveness on electric pain stimulation, rats. To be noted: 100,0 mg/kg.
Test [7] concerns Mäuse. The test can be described thus: Phenamin-induced hypermotility in actometer. Conditions: 500 mg/kg + Phenamin 5 mg/kg i.p. 10 min later. How it is done:
Eis wurde die Wirkung der beanspruchten Verbindung auf den durch Phenamin ausgelöston Effekt der Veränderung der Hypermotorik untersucht. Phenamin wurde den Mäusen intraperitoneal in Dosen von 3 und 5 mg/kg I0 Minuten nach der enteralen oder intraperitonealen Einführung der beanspruchten Verbindung und des Pyrazetams eingeführt. Die Tiere wurden in der Kammer des photoelektrischen Aktometers untergebracht. Die motorische Aktivität wurde nach der Zahl der Impulse innerhalb von 60 Minuten bestimmt. Die Angaben sind in der Tabelle 6 angeführt.

The subject of test [8] is Mäuse. The test can be described thus: Hypoxia in hermetically closed vessel, survival. To be noted: closed vessel 80 cm³. The text has this:
Nach der zweiten Methode wurden die Mäuse in einem hermetisch verschlossenen Gefäss von 80 cm³ Inhalt untergebracht, dabei wurde die Luft nicht abgesaugt, und es wurden keine CO₂-Sorptionsmittel zugegeben. Die Prüfverbindungen wurden I Stunde vor dem Beginn des Versuchs intraperitoneal eingeführt (siehe Tabelle II).

Setting [9] is: 100,0 mg/kg enteral 60 min before.

In the case of `O=C(O)CCCO` [Natriumoxybutyrat], the Überlebensdauer in the test with Mäuse [1] (setting [9]) is 7,1±2,3 min; with Mäuse [1] (200,0 mg/kg enteral 60 min before) it was 10,1±1,9 min; in the test with Mäuse [2] (100,0 mg/kg), 28,4±2,8 min; in the test on Mäuse [2] (200,0 mg/kg), 43,0±2,3 min.

Turning to `NC(=O)CN1CCCC1=O` [Pyrazetam, I-Karbamidomethylpyrrolidon-2], the “Anzahl der Impulse im Aktometer” value in the test with Mäuse [3] (100 mg/kg i.p.) is reported as 342±18; in the test with Mäuse [3] (500 mg/kg i.p.), 338±24; in the test on Mäuse [3] (1000 mg/kg i.p.), 288±28. Also, in the test on Ratten [4], the Schlafdauer is 204,6±21 min. Moreover, the “Spannung in V, Schwelle der Agressivität” value with Mäuse [5] (100 mg/kg) was 28,4±2,4 V; in the test with Mäuse [5] (1000 mg/kg), 26,7±2,5 V. Besides, the “Spannung in V, Schwelle der emotionellen Reaktivität” value in the test with Mäuse [5] (1000 mg/kg) is reported as 20,7±2,4 V. Also, the Überlebensdauer in the test on Mäuse [1] (setting [9]) is 3,4±0,6 min; with Mäuse [1] (500,0 mg/kg enteral 60 min before), 5,5±1,8 min; with Mäuse [1] (1000,0 mg/kg enteral 60 min before), 7,2±1,4 min; in the test on Mäuse [8] (100,0 mg/kg i.p. 1 h before) it was 9,6±1,2 min; in the test with Mäuse [8] (500,0 mg/kg i.p. 1 h before) it was 11,8±2,1 min; in the test with Mäuse [8] (1000,0 mg/kg i.p. 1 h before) it was 13,6±1,8 min. Also, the values for the Überlebensdauer in the test with Mäuse [2] (100,0 mg/kg), in the test with Mäuse [2] (500,0 mg/kg) and in the test on Mäuse [2] (1000,0 mg/kg) were 26,7±2,2 min, 34,2±3,6 min and 38,8±4,2 min, respectively. Further, in the test on Ratten [6], the “Spannung in V, die Schwelle der emotionnellen Reaktivität” value is on record as 25,7±0,8 V. In addition, the “Anzahl der Impulse im Aktometer innerhalb von 60 min” value in the test with Mäuse [7] worked out at 1872±66.

These data come from patent EP0414895A1, “OROTATE OF $g(a)-AMINO-$g(b)-PHENYL-BUTYRIC ACID” (NAUCHNO-PROIZVODSTVENNOE OBIEDINENIE "BIOLAR", priority 1989, dated 1990).
